Assay results as given in BigSolDB 2.1.

NC(N)=S
solubility (mole fraction)
Conditions | 283.15 K | 288.15 K | 293.15 K | 298.15 K | 303.15 K | 308.15 K | 313.15 K
in ethanol | 0.0185 | 0.0206 | 0.0222 | 0.025 | 0.027 | 0.0315 | 0.0348
in methanol | 0.0421 | 0.046 | 0.0501 | 0.054 | 0.061 | 0.065 | 0.0744
in n-propanol | 0.0185 | 0.0206 | 0.0222 | 0.025 | 0.027 | 0.0315 | 0.0348
